Reference: patent US10464957B2, “Oxidized lipids and methods of use thereof” (Vascular Biogenics Ltd., priority 2014, dated 2019)

Columns and labels:
NASH-induced mice = assay: NASH and liver fibrosis mouse model (STZ + HFD), liver histology; type: in vivo
Method: (§1) Neonatal male mice exposed to low-dose streptozotocin (STZ) develop liver steatosis with diabetes. Continuous high fat diet (HFD) increases lobular inflammation with foam cell-like macrophages, showing nonalcoholic steatohepatitis (NASH) pathology. NASH was induced in 40 male mice by a single subcutaneous injection of 200 μg per mouse of STZ two days after birth and feeding HFD [57 kcal % fat]) from four weeks of age. Vehicle, VB-703 (4 mg/kg), or telmisartan (10 mg/kg) as positive control, were administered once daily for three weeks, starting from six weeks of age. Mice were sacrificed at nine weeks of age.
Liver pathology was used to determine the effect of VB-703 on liver inflammation and fibrosis. Histology slides were stained with hematoxylin/eosin (H&E) to assess inflammation. The inflammation score was determined as follows:
Histology slides were stained with Sirius red to determine collagen content as a marker for the extent of fibrosis.

[1] = tested on: livers taken from NASH-induced mice; assay: Q-PCR of inflammation mediators in livers of NASH-induced mice; type: in vivo; conditions: VB-703 4 mg/kg, Q-PCR normalized to GAPDH
Method: as §1
RNA was prepared from livers from normal mice and NASH-induced mice treated with vehicle, VB-703, or telmisartan, using RNeasy mini kit (Qiagen). For cDNA preparation, 2 μg of RNA was combined with qScript reaction mix and qScript Reverse Transcriptase (Quanta BioSciences) for 5 min at 22° C. and then for 30 min at 42° C. Reaction was ended by incubation for an additional 5 min at 85° C. All real time PCR reactions were performed using the 7300 Real Time PCR System (Applied Biosystems). Q-PCR with mouse ready set of probe with primer was used for IL-1β, IL-12/23p40 and MCP-1 (Applied Biosystems). GAPDH was used to normalize RNA levels.

[2] = tested on: kidney of nephrectomized rats; assay: Real-time PCR of pro-fibrotic markers in kidney of nephrectomized rats; type: in vivo, Sprague Dawley (SD) Rats
Method: Kidney RNA was extracted with an RNeasy Fibrous Tissue Mini kit (Qiagen) and after DNAse I treatment, single-stranded cDNA was synthesized from 2 μg total RNA using the qScript cDNA Synthesis Kit (Quanta Biosciences) and diluted for real-time PCR. The expression of collagen 4α, fibronectin and TGFβ was quantified using the 7300 Real Time PCR System (Applied Biosystems). The assay was performed according to manufacturer instructions using the primers (Assay ID) represented at the table below supplied by Applied Biosystems. Data were normalized to the reference gene TATA box Binding Protein (TBP) and presented as relative mRNA levels compared with Sham PBS 0.5% Eth treatment (Table 1).

[3] = tested on: RANTES-induced signaling in human monocytes (primary CD14+); assay: RANTES-induced signaling, western blot; type: cell-based; conditions: RANTES 100 ng/ml for 15 minutes
Method: Cells (10^6/ml) were pretreated for 20 min with VB-201 (1-hexadecyl-2-(4′-carboxy)butyl-glycero-3-phosphocholine or 1-hexadecyl-2-(4′-carboxybutyl)-glycerol-3-phosphocholine) or VB-701 at the doses indicated in FIG. 2, or with solvent (Sol), followed by 15 min activation with 100 ng/ml lipopolysaccharide (LPS) or were untreated (Unt). Cells were washed and resuspended in lysis buffer containing 1:100 dithiothreitol (DTT), phosphatase and protease inhibitors (Thermo Scientific). Samples were loaded onto a precast Criterion TGX gel (Bio-Rad, Hemel Hempstead, UK) and transferred onto nitrocellulose membrane. Blots were blocked with 5% milk or BSA in Tris buffered saline and Tween 20 (TBST) for 1 h, followed by incubation with primary and secondary antibodies. Membranes were developed using an ECL kit (Thermo Scientific). The following antibodies were used for immunoblotting:
Human monocytes were obtained, treated and analyzed by western blot as described in Example 9 and FIG. 7, except that cells were induced with RANTES (100 ng/ml; Cat. No. 300-06, PeproTech, Israel) for 15 minutes. […] Accordingly, VB-702 and VB-201 inhibit RANTES-induced signaling in human monocytes (primary CD14+).

[4] = tested on: Pam3CSK4 (TLR2)-stimulated human monocytes (primary CD14+); assay: IL-12/23p40 ELISA, Pam3CSK4 (TLR2)-stimulated monocytes; type: cell-based; conditions: 1 hour pretreatment, 24 hour 300 ng/ml Pam3CSK4, ELISA of supernatant
Method: (§2) Human monocytes were obtained as described in Example 9 and FIG. 9A-9B. Human monocytes were seeded (10^6/ml) and pretreated for 1 hour with VB-201, VB-701 or VB-702, followed by 24 hour activation with 100 ng/ml LPS from Escherichia coli strain 055:B5 (Sigma, Israel) (FIG. 9A) or 300 ng/ml Pam3CSK4 (InvivoGen, San Diego, Calif., USA) (FIG. 9B) to induce cytokine production. IL-12/23p40 concentration in the supernatant was then measured by ELISA (R&D systems, Cat. No. DY1240). Cells activated with solvent (0.5% ethanol in PBS) were used as a control.

[5] = tested on: LPS (TLR4)-stimulated human monocytes (primary CD14+); assay: IL-12/23p40 ELISA, LPS (TLR4)-stimulated monocytes; type: cell-based; conditions: 1 hour pretreatment, 24 hour 100 ng/ml LPS, ELISA of supernatant
Method: as §2

[6] = compared to Nx PBS 0.5% Eth treatment, VB-703 4 mg/kg, telmisartan 10 mg/kg
[7] = normalized to TBP, relative to Sham PBS 0.5% Eth, mean±SEM

| Compound | steatosis (NASH-induced mice; VB-703 4 mg/kg once daily for three weeks) | decrease of liver fibrosis compared to vehicle treated mice (Sirius red) (NASH-induced mice; VB-703 4 mg/kg, telmisartan 10 mg/kg, once daily for three weeks) | expression of IL-10 in livers [1] | expression of IL-12/23p40 in livers [1] | expression of the chemokine MCP-1 in livers [1] | reduction of Collagen IV expression [2, 6] | reduction of TGF-β expression [2, 6] | reduction of fibronectin expression [2, 6] | Collagen IV mRNA expression (relative mRNA level) [2, 7] | TGF-β mRNA expression (relative mRNA level) [2, 7] | fibronectin mRNA expression (relative mRNA level) [2, 7] | formation of p-ERK induced by RANTES [3] | IL-12p40 levels, Pam3CSK4 (TLR2)-stimulated [4] | IL-12p40 levels, LPS (TLR4)-stimulated [5] |
| --- | --- | --- | --- | --- | --- | --- | --- | --- | --- | --- | --- | --- | --- | --- |
| CCCCCCCCCCC(CCCCCCCC)COC[C@H](COP(=O)([O-])OCC[n+]1ccccc1)OCCCCC(=O)O (stereo partly drawn) [VB-703, (R)-1-(2′-octyl)dodecyl-2-(4′-carboxy)butyl-sn-glycero-3-phosphoric acid pyridiniumethyl ester] | did not appear to significantly alter | 58% | significantly inhibited | significantly inhibited | significantly inhibited | 51% | 42% | 47% | 3.7±0.52 | 4.8±0.32 | 6.7±0.98 | – | – | – |
| CCCCCCCCCCCCCCCCOCC(COP(=O)([O-])OCC[N+](C)(C)C)OCCCCC(=O)O (centres unmarked) [VB-201, 1-hexadecyl-2-(4′-carboxy)butyl-glycero-3-phosphocholine, reference compound] | – | – | – | – | – | – | – | – | – | – | – | inhibit | inhibit | inhibit |
